# Data taken from patent US8309534B2, “Compositions comprising a GPR109 ligand for treating disorders of the digestive tract and/or cancer” (Medical College of Georgia Research Institute, Inc., priority 2007, dated 2012).
# “Also recorded” adds a separate entry of the source.
# Columns and labels:
# [1] = system: bone marrow-derived dendritic cells; assay: Development of bone marrow-derived dendritic cells (FACS); assay type: cell-based; details: mouse bone marrow cells, ligand 1 mM, 4 days
# Experimental: In these experiments, mouse bone marrow cells were collected and cultured in the presence of various ligands (1 mM) for 4 days. Following this, FACS (fluorescence activated cell sorting) was used to identify the fraction of various immune cell types in the sample.
# [2] = system: LPS-induced activation of NF-κB promoter in CCD841 cells; details: ligand 1 mM 8 h, then LPS 100 ng/ml 4 h, luciferase
# Description: (§1) The anti-inflammatory effect of butyrate was monitored in colonic cells by its ability to suppress LPS-induced activation of NF-κB promoter with luciferase as the reporter. The participation of SLC5A8 and GPR109A in mediating the effects of extracellular butyrate was differentiated first by using specific ligands. If SLC5A8 is involved in the process, the transporter-facilitated entry of butyrate followed by inhibition of histone deacetylases (HDACs) inside the cells would be responsible for the effects. If GPR109A is involved in the process, the activation of the receptor by extracellular butyrate would be responsible for the effects. […] In these experiments, cells were first transfected with the construct carrying the NF-κB-luciferase, pretreated with GPR109A ligands (1 mM) for 8 h and then exposed to LPS (100 ng/ml) for 4 h. Following the treatment, cell lysates were used to measure luciferase activity as a read-out for activation of NF-κB.
# [3] = system: vector-transfected KM12L4 cells; details: 0.5 mM, 24 h
# [4] = system: GPR109A expression in human colon cancer cell lines; assay: GPR109A mRNA expression in colon cancer cell lines by semi-quantitative RT-PCR; assay type: cell-based; details: 2 μg/ml, 72 h
# Experimental: HPRT1 mRNA was used as an internal control. […] Steady-state levels of mRNAs for DNMT1, DNMT3a, DNMT3b, and HPRT1 were monitored in normal human colon tissues and in human colon cancer tissues by semi-quantitative RT-PCR. […] Three different colon cancer cell lines were treated with procainamide, a specific inhibitor of DNMT1, and the expression of GPR109A was monitored in cells treated with or without the inhibitor.
# [5] = system: LPS-induced activation of NF-κB promoter in vector-transfected KM12L4 cells; assay: LPS-induced NF-κB promoter reporter in vector-transfected KM12L4 cells (no GPR109A); assay type: cell-based, human; details: ligand 1 mM 8 h, LPS 100 ng/ml 4 h
# Description: as §1
# (§2) The cells were transfected with either empty vector or human GPR109A cDNA. […] We cloned the human GPR109A cDNA by RT-PCR using mRNA prepared from human colon, and subcloned the RT-PCR product into pcDNA vector under the control of the cytomegalovirus promoter. The insert was sequenced to confirm its molecular identity. […] The activation of the receptor was monitored by measuring the activity of a K^+-channel.
# [6] = system: LPS-induced NF-κB promoter activity in KM12L4 cells with ectopic expression of GPR109A; assay: LPS-induced NF-κB promoter reporter in KM12L4 cells transfected with human GPR109A cDNA; assay type: cell-based; details: ligand 1 mM 8 h, LPS 100 ng/ml 4 h
# Description: as §1, §2
# [7] = system: human breast cancer cell line; assay: Apoptosis of human breast cancer cell line with octanoate; assay type: cell-based; details: human breast cancer cell line expressing GPR109B
# Description: The GPR109B receptor isoform is unique to humans. Its expression is not reduced in cancer. Its ligand specificity is different from that of GPR109A. One of the ligands which has relatively high affinity for GPR109B is the medium-chain fatty acid octanoate. This ligand was used to see if this receptor isoform can be used to kill tumor cells. […] Two cancer cell lines, a human colon cancer cell line and a human breast cancer cell line were studied. Both these cell lines express GPR109B because the expression of this receptor isoform is not affected in cancer. […] Thus, another embodiment provides a method for treating cancer by administering to a subject an effective amount of a ligand for GPR109B to promote apoptosis in tumor cells optionally in combination with a second therapeutic agent. A preferred ligand is octanoate or a derivative thereof.
# [8] = system: Colon cancer cell line SW480; assay: Apoptosis of colon cancer cells with octanoate (propidium iodide FACS); assay type: cell-based; details: human colon cancer cell line (SW480); varying concentrations, 24 or 48 h
# Experimental: Colon cancer cell line SW480 was cultured in the presence of varying concentrations of octanoate for 24 or 48 h, and then cells were fixed in ethanol, stained with propidium iodide, and subjected to FACS analysis to determine the percent of cells undergoing apoptosis. Sub G0/1 cells were quantitated using Cell Quest program and values are expressed as mean+SEM.
# [9] = system: LPS-induced NF-κB promoter activity in HCT116-DNMT1−/− cells; details: GPR109A expressed
# Description: as §1
# (§3) Additionally, two different isogenic cell lines of the human colon cancer cell line HCT116, one with normal expression of the DNA methyltransferase I(DNMT1) and the other with deletion of the gene coding for the enzyme (HCT116-DNMT1^−/−) were used.
# [10] = system: LPS-induced NF-κB promoter activity in HCT116 cells; details: HCT116, no expression of GPR109A
# Description: as §1, §3
structure (smiles),measurement,setting,value
"O=C(O)c1cccnc1 [nicotinate, nicotinic acid]",effect on development of dendritic cells,[1],had no effect
same,effect on LPS-induced activation of NF-κB promoter,[2],able to block LPS-induced activation of NF-κB promoter
same,change in expression of genes involved in apoptosis and cell cycle,[3],do not exhibit any change in the expression of various genes
Nc1ncn([C@@H]2O[C@H](CO)[C@@H](O)[C@H]2O)c(=O)n1 [5-azacytidine],effect on GPR109A expression,[4],the expression of the gene is induced
same,effect on GPR109A expression,[4]; listed as 5′-azacytidine,re-activates the expression of the receptor
CC(=O)O [acetate],effect on development of dendritic cells,[1],had no effect
CCC(=O)O [propionate],effect on development of dendritic cells,[1],able to block the development
"CC(C)n1nnc2cc(C(=O)O)ccc21 [IPBT, 1-isopropyl-benzotriazole-5-carboxylic acid]",effect on LPS-induced activation of NF-κB promoter,[5],did not have any effect
same,effect on LPS-induced NF-κB promoter activity,[6],did not have any effect
CCCCCCCC(=O)O [octanoate],apoptosis,[7],leads to apoptosis in a dose-dependent manner
same,apoptosis,[8],induced apoptosis; also recorded: leads to apoptosis in a dose-dependent manner
CC1(c2ccccc2)OC(C(=O)O)=CC1=O (stereo not drawn) [acifran],effect on LPS-induced NF-κB promoter activity,[9],suppressed LPS-induced promoter activity
same,effect on LPS-induced NF-κB promoter activity,[10],none of these compounds had any significant effect
same,effect on LPS-induced activation of NF-κB promoter,[5],did not have any effect
same,effect on LPS-induced NF-κB promoter activity,[6],marked suppression
